Results reported in ChEMBL document CHEMBL1143561, “Virtual docking approaches to protein kinase B inhibition” (J Med Chem, 2005).

Target: RAC-alpha serine/threonine-protein kinase (Homo sapiens, UniProt P31749)
Experiment: Inhibition of protein kinase B alpha (Akt1) in fluorescent enzymatic assay

Sequence of RAC-alpha serine/threonine-protein kinase (P31749 whole entry): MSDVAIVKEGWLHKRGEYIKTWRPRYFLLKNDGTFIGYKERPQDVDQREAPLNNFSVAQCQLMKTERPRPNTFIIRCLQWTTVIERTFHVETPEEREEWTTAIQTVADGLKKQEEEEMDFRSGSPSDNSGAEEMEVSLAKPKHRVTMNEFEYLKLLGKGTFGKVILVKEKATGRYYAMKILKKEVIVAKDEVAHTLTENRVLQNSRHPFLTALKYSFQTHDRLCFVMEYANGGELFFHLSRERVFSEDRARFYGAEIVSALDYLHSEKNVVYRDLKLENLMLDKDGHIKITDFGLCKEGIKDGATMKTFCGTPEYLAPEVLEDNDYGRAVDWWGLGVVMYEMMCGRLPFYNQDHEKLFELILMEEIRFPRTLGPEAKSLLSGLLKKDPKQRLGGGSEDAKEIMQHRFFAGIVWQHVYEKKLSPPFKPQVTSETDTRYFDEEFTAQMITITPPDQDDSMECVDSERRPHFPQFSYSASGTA

IC50: 60.2 µM
Structure (SMILES): CC1=C(C#N)c2nc(N)c(C#N)c(C)c2/C1=C/c1ccc(-c2cccc(C(=O)O)c2)o1
